From the supplement of paper PMC8617591

Columns and labels:
[1] = tested on: Mycobacterium tuberculosis Erdman (autoluminescent); test: GRinf, maximum normalised growth rate inhibition (three-drug combination) (unitless (-1 to 1)); higher = less effect (negative = killing)
Description: (§1)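 DiaMOND equipotent three-drug combination dose responses (10 doses, 1.5- or 2-fold spacing, centred on IC90) against autoluminescent M. tuberculosis Erdman in 8 in vitro models. Read-out is OD600, or luminescence for the intracellular and dormancy models, normalised to untreated wells. Hill-fit Einf, AUC25 and GRinf are potency metrics; FIC50 and FIC90 are total Loewe fractional inhibitory concentrations as log2 (negative = synergy).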

[2] = tested on: Mycobacterium tuberculosis Erdman (autoluminescent); test: Einf, fitted maximum growth inhibition of three-drug combination (fraction); higher = stronger maximal inhibition
Description: as §1

[3] = tested on: Mycobacterium tuberculosis Erdman (autoluminescent); test: total FIC90 (Loewe) at 90% inhibition, three-drug combination (log2); higher = more antagonistic
Description: as §1

[4] = tested on: Mycobacterium tuberculosis Erdman (autoluminescent); test: AUC25, normalised area under dose response up to IC25 (three-drug combination) (fraction (0-1)); higher = more potent at low dose
Description: as §1

[5] = tested on: Mycobacterium tuberculosis Erdman (autoluminescent); test: total FIC50 (Loewe) at 50% inhibition, three-drug combination (log2); higher = more antagonistic
Description: as §1

CC(C)/N=c1\cc2n(-c3ccc(Cl)cc3)c3ccccc3nc-2cc1Nc1ccc(Cl)cc1 [clofazimine] + CC(=O)NC[C@H]1CN(c2ccc(N3CCOCC3)c(F)c2)C(=O)O1 [linezolid] + O=[N+]([O-])c1cn2c(n1)OC[C@@H](OCc1ccc(OC(F)(F)F)cc1)C2 [pretomanid]
Details	AUC25, [4]	Einf, [2]	GRinf, [1]	total FIC50, [5]	total FIC90, [3]
in vitro model: acidic pH 5.7, time point: constant (~7 days, model-specific)	0.106	0.845	-0.45	0.0449	–
in vitro model: acidic pH 5.7, time point: terminal (~4-5 doublings, model-specific)	0.0757	0.964	-0.318	1.03	0.257
in vitro model: intracellular J774, time point: constant = terminal	–	0.996	-0.884	–	1.09

Details	AUC25, [4]	Einf, [2]	GRinf, [1]	total FIC50, [5]	total FIC90, [3]
in vitro model: butyrate, time point: constant (~7 days, model-specific)	0.124	0.962	-0.311	0.534	1.52
in vitro model: butyrate, time point: terminal (~4-5 doublings, model-specific)	0.0915	0.98	-0.185	0.691	1.09
in vitro model: cholesterol 0.05 mM, time point: constant (~7 days, model-specific)	0.133	0.677	-0.0316	-0.375	–
in vitro model: cholesterol 0.05 mM, time point: terminal (~4-5 doublings, model-specific)	0.136	0.918	-0.14	0.13	2.05
in vitro model: cholesterol-high 0.2 mM, time point: constant (~7 days, model-specific)	0.116	0.922	-0.441	0.0459	1.18
in vitro model: cholesterol-high 0.2 mM, time point: terminal (~4-5 doublings, model-specific)	0.123	1	-0.938	-0.122	0.391
in vitro model: dormancy (butyrate + nitrate, low O2), time point: constant (~7 days, model-specific)	0.0841	0.925	0.221	0.87	1.32
in vitro model: dormancy (butyrate + nitrate, low O2), time point: terminal (~4-5 doublings, model-specific)	0.0337	0.986	-0.216	0.422	0.0103
in vitro model: standard 7H9 glycerol, time point: constant = terminal	0.128	0.951	-0.277	0.0629	0.915
in vitro model: valerate, time point: constant (~7 days, model-specific)	0.14	0.85	-0.138	0.292	–
in vitro model: valerate, time point: terminal (~4-5 doublings, model-specific)	0.0928	0.892	0.125	0.0202	1.37

CC(C)/N=c1\cc2n(-c3ccc(Cl)cc3)c3ccccc3nc-2cc1Nc1ccc(Cl)cc1 [clofazimine] + CC[C@@H](CO)NCCN[C@@H](CC)CO [ethambutol] + CC(=O)NC[C@H]1CN(c2ccc(N3CCOCC3)c(F)c2)C(=O)O1 [linezolid]
Details	AUC25, [4]	Einf, [2]	GRinf, [1]	total FIC50, [5]	total FIC90, [3]
in vitro model: acidic pH 5.7, time point: constant (~7 days, model-specific)	0.105	0.811	-0.393	0.0935	–
in vitro model: acidic pH 5.7, time point: terminal (~4-5 doublings, model-specific)	0.0957	0.963	-0.297	0.906	0.401
in vitro model: intracellular J774, time point: constant = terminal	–	1	-0.815	–	0.836

Details	AUC25, [4]	Einf, [2]	GRinf, [1]	total FIC50, [5]	total FIC90, [3]
in vitro model: butyrate, time point: constant (~7 days, model-specific)	0.11	0.96	-0.165	0.534	–
in vitro model: butyrate, time point: terminal (~4-5 doublings, model-specific)	0.0792	0.977	-0.123	0.703	0.483
in vitro model: cholesterol 0.05 mM, time point: constant (~7 days, model-specific)	0.148	0.746	-0.203	–	–
in vitro model: cholesterol 0.05 mM, time point: terminal (~4-5 doublings, model-specific)	0.165	0.917	-0.514	-0.786	–
in vitro model: cholesterol-high 0.2 mM, time point: constant (~7 days, model-specific)	0.129	0.925	-1	0.0764	–
in vitro model: cholesterol-high 0.2 mM, time point: terminal (~4-5 doublings, model-specific)	0.125	1	-0.967	-0.259	0.74
in vitro model: dormancy (butyrate + nitrate, low O2), time point: constant (~7 days, model-specific)	0.0953	0.783	0.496	0.231	–
in vitro model: dormancy (butyrate + nitrate, low O2), time point: terminal (~4-5 doublings, model-specific)	0.0972	0.963	-0.701	0.197	0.279
in vitro model: standard 7H9 glycerol, time point: constant = terminal	0.122	0.949	-0.0541	0.243	–
in vitro model: valerate, time point: constant (~7 days, model-specific)	0.11	0.869	-0.282	0.664	–
in vitro model: valerate, time point: terminal (~4-5 doublings, model-specific)	0.0648	0.881	-0.0657	0.302	-0.133

CC(C)/N=c1\cc2n(-c3ccc(Cl)cc3)c3ccccc3nc-2cc1Nc1ccc(Cl)cc1 [clofazimine] + CC[C@@H](CO)NCCN[C@@H](CC)CO [ethambutol] + CO[C@H]1/C=C/O[C@@]2(C)Oc3c(C)c(O)c4c(O)c(c(/C=N/N5CCN(C6CCCC6)CC5)c(O)c4c3C2=O)NC(=O)/C(C)=C\C=C\[C@H](C)[C@H](O)[C@@H](C)[C@@H](O)[C@@H](C)[C@H](OC(C)=O)[C@@H]1C [rifapentine]
Details	AUC25, [4]	Einf, [2]	GRinf, [1]	total FIC50, [5]	total FIC90, [3]
in vitro model: acidic pH 5.7, time point: constant (~7 days, model-specific)	0.0945	0.877	-0.109	0.153	–
in vitro model: acidic pH 5.7, time point: terminal (~4-5 doublings, model-specific)	0.0736	0.978	-0.14	0.358	0.125
in vitro model: intracellular J774, time point: constant = terminal	–	0.973	-0.172	–	-1.79

Details	AUC25, [4]	Einf, [2]	GRinf, [1]	total FIC50, [5]	total FIC90, [3]
in vitro model: butyrate, time point: constant (~7 days, model-specific)	0.083	0.942	-0.0595	0.37	–
in vitro model: butyrate, time point: terminal (~4-5 doublings, model-specific)	0.0656	0.972	-0.043	0.422	-0.0851
in vitro model: cholesterol 0.05 mM, time point: constant (~7 days, model-specific)	0.111	0.703	-0.0332	–	–
in vitro model: cholesterol 0.05 mM, time point: terminal (~4-5 doublings, model-specific)	0.0974	0.871	-0.122	1.66	–
in vitro model: cholesterol-high 0.2 mM, time point: constant (~7 days, model-specific)	0.0285	0.928	-0.371	1.18	–
in vitro model: cholesterol-high 0.2 mM, time point: terminal (~4-5 doublings, model-specific)	0.0668	1	-0.81	1.37	1.24
in vitro model: dormancy (butyrate + nitrate, low O2), time point: constant (~7 days, model-specific)	0.105	0.823	0.414	-0.127	–
in vitro model: dormancy (butyrate + nitrate, low O2), time point: terminal (~4-5 doublings, model-specific)	0.128	0.99	-0.336	0.0752	0.891
in vitro model: standard 7H9 glycerol, time point: constant = terminal	0.105	0.92	0.0206	-0.0963	–
in vitro model: valerate, time point: constant (~7 days, model-specific)	0.126	0.889	0.017	1.07	–
in vitro model: valerate, time point: terminal (~4-5 doublings, model-specific)	0.0898	0.925	0.0199	0.462	0.841
